ChEMBL document CHEMBL1201862, “PubChem BioAssay data set” (2004)
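Compound exposure: 48 hours, 5 concentrations, 96-well plates. GI50 is the concentration that inhibits growth by half.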 Active and inactive are the calls of the source. No stated cut-off is given here; in the data, active = GI50 up to about 1.1 µM and inactive = higher.

What was measured:
Test in all cases: NCI-60 cell line screen, 48 h
[1] = test system: 786-0
[2] = test system: A549
[3] = test system: ACHN
[4] = test system: CCRF-CEM
[5] = test system: COLO 205
[6] = test system: DMS-114
[7] = test system: DMS-273
[8] = test system: EKVX
[9] = test system: HCT-116
[10] = test system: HCT-15
[11] = test system: HL-60
[12] = test system: HOP-18
[13] = test system: HOP-62
[14] = test system: HT-29
[15] = test system: K562
[16] = test system: KM-20L2
[17] = test system: KM12
[18] = test system: LOX IMVI
[19] = test system: LXFL 529
[20] = test system: M14
[21] = test system: M19-MEL
[22] = test system: MOLT-4
[23] = test system: Malme-3M
[24] = test system: NCI-H226
[25] = test system: NCI-H23
[26] = test system: NCI-H460
[27] = test system: OVCAR-4
[28] = test system: OVCAR-8
[29] = test system: RPMI-8226
[30] = test system: RXF 393
[31] = test system: SF-268
[32] = test system: SF-295
[33] = test system: SK-MEL-28
[34] = test system: SK-MEL-2
[35] = test system: SK-MEL-5
[36] = test system: SK-OV-3
[37] = test system: SN12C
[38] = test system: SNB-19
[39] = test system: SNB-75
[40] = test system: SNB-78
[41] = test system: SR
[42] = test system: SW-620
[43] = test system: TK-10
[44] = test system: U-251
[45] = test system: UACC-257
[46] = test system: UACC-62
[47] = test system: UO-31
[48] = test system: XF498
[49] = test system: A498
[50] = test system: CAKI-1
[51] = test system: DLD-1
[52] = test system: HCC 2998
[53] = test system: HOP-92
[54] = test system: IGROV-1
[55] = test system: MCF7
[56] = test system: NCI-H522
[57] = test system: NCI/ADR-RES
[58] = test system: OVCAR-3
[59] = test system: OVCAR-5
[60] = test system: SF-539

## CC(=O)O[C@]12CCCCCC1C1(O)C(O)CCC[C@H]12 (stereo not given in full)
[1]
  GI50: > 100 µM (inactive)
[2]
  GI50: > 100 µM (inactive)
[3]
  GI50: > 100 µM (inactive)
[4]
  GI50: > 100 µM (inactive)
[5]
  GI50: > 100 µM (inactive)
[6]
  GI50: > 100 µM (inactive)
[7]
  GI50: > 100 µM (inactive)
[8]
  GI50: > 100 µM (inactive)
[9]
  GI50: > 100 µM (inactive)
[10]
  GI50: > 100 µM
[11]
  GI50: > 100 µM (inactive)
[12]
  GI50: > 100 µM (inactive)
[13]
  GI50: > 100 µM (inactive)
[14]
  GI50: > 100 µM (inactive)
[15]
  GI50: > 100 µM (inactive)
[16]
  GI50: > 100 µM (inactive)
[17]
  GI50: > 100 µM (inactive)
[18]
  GI50: > 100 µM (inactive)
[19]
  GI50: > 100 µM (inactive)
[20]
  GI50: > 100 µM (inactive)
[21]
  GI50: > 100 µM (inactive)
[22]
  GI50: > 100 µM (inactive)
[23]
  GI50: > 100 µM (inactive)
[24]
  GI50: > 100 µM (inactive)
[25]
  GI50: > 100 µM (inactive)
[26]
  GI50: > 100 µM (inactive)
[27]
  GI50: > 100 µM (inactive)
[28]
  GI50: > 100 µM (inactive)
[29]
  GI50: > 100 µM (inactive)
[30]
  GI50: > 100 µM (inactive)
[31]
  GI50: > 100 µM (inactive)
[32]
  GI50: > 100 µM (inactive)
[33]
  GI50: > 100 µM (inactive)
[34]
  GI50: > 100 µM (inactive)
[35]
  GI50: > 100 µM (inactive)
[36]
  GI50: > 100 µM (inactive)
[37]
  GI50: > 100 µM (inactive)
[38]
  GI50: > 100 µM (inactive)
[39]
  GI50: > 100 µM (inactive)
[40]
  GI50: > 100 µM (inactive)
[41]
  GI50: > 100 µM (inactive)
[42]
  GI50: > 100 µM (inactive)
[43]
  GI50: > 100 µM (inactive)
[44]
  GI50: > 100 µM (inactive)
[45]
  GI50: > 100 µM (inactive)
[46]
  GI50: > 100 µM (inactive)
[47]
  GI50: > 100 µM (inactive)
[48]
  GI50: > 100 µM (inactive)

## COc1cc(C2c3cc4c(cc3[C@@H](Nc3ccc5c(c3)OCO5)C3COC(=O)[C@H]23)OCO4)cc(OC)c1O (stereo not given in full)
[49]
  GI50: 0.333 µM (active)
[2]
  GI50: 0.0294 µM (active)
[50]
  GI50: 0.152 µM (active)
[4]
  GI50: 0.0641 µM (active)
[5]
  GI50: 1.68 µM (inactive)
[51]
  GI50: 1.55 µM (inactive)
[7]
  GI50: 0.105 µM (active)
[8]
  GI50: 2.45 µM (inactive)
[52]
  GI50: 1.42 µM (inactive)
[9]
  GI50: 0.74 µM (active)
[10]
  GI50: 0.336 µM
[11]
  GI50: 0.043 µM (active)
[12]
  GI50: 0.766 µM (active)
[13]
  GI50: 0.177 µM (active)
[53]
  GI50: 0.424 µM (active)
[14]
  GI50: 1.24 µM (inactive)
[54]
  GI50: 2.49 µM (inactive)
[15]
  GI50: 0.721 µM (active)
[16]
  GI50: 2.24 µM (inactive)
[17]
  GI50: 1.79 µM (inactive)
[18]
  GI50: 0.456 µM (active)
[21]
  GI50: 1.65 µM (inactive)
[55]
  GI50: 0.175 µM (active)
[22]
  GI50: < 0.0136 µM (active)
[23]
  GI50: 1.42 µM (inactive)
[24]
  GI50: 0.217 µM (active)
[25]
  GI50: 0.303 µM (active)
[26]
  GI50: < 0.01 µM (active)
[56]
  GI50: 1.06 µM (active)
[57]
  GI50: 0.482 µM (active)
[58]
  GI50: 2.9 µM (inactive)
[59]
  GI50: 2.74 µM (inactive)
[28]
  GI50: 1.38 µM (inactive)
[29]
  GI50: 0.774 µM (active)
[30]
  GI50: 1.09 µM (active)
[31]
  GI50: 0.953 µM (active)
[32]
  GI50: 0.213 µM (active)
[60]
  GI50: 0.324 µM (active)
[33]
  GI50: 3.43 µM (inactive)
[34]
  GI50: 2.4 µM (inactive)
[35]
  GI50: 0.63 µM (active)
[36]
  GI50: 1.25 µM (inactive)
[37]
  GI50: 0.643 µM (active)
[38]
  GI50: 0.299 µM (active)
[39]
  GI50: 0.991 µM (active)
[42]
  GI50: 1.2 µM (inactive)
[44]
  GI50: 0.185 µM (active)
[45]
  GI50: 0.507 µM (active)
[46]
  GI50: 0.322 µM (active)
[47]
  GI50: 0.382 µM (active)
[48]
  GI50: 1.64 µM (inactive)

## O=C1CC(c2ccccc2)=Nc2ccccc2N1
[1]
  GI50: > 100 µM (inactive)
[49]
  GI50: 24.7 µM (inactive)
[2]
  GI50: > 100 µM (inactive)
[3]
  GI50: > 100 µM (inactive)
[50]
  GI50: > 100 µM (inactive)
[4]
  GI50: 65 µM (inactive)
[5]
  GI50: 98.9 µM (inactive)
[51]
  GI50: > 100 µM (inactive)
[7]
  GI50: > 100 µM (inactive)
[8]
  GI50: > 100 µM (inactive)
[52]
  GI50: > 100 µM (inactive)
[9]
  GI50: 86.5 µM (inactive)
[10]
  GI50: > 100 µM
[11]
  GI50: 34.5 µM (inactive)
[12]
  GI50: > 100 µM (inactive)
[13]
  GI50: > 100 µM (inactive)
[53]
  GI50: 81.1 µM (inactive)
[14]
  GI50: > 100 µM (inactive)
[54]
  GI50: > 100 µM (inactive)
[15]
  GI50: > 100 µM (inactive)
[16]
  GI50: > 100 µM (inactive)
[17]
  GI50: > 100 µM (inactive)
[18]
  GI50: 35 µM (inactive)
[19]
  GI50: > 100 µM (inactive)
[20]
  GI50: > 100 µM (inactive)
[21]
  GI50: > 100 µM (inactive)
[22]
  GI50: > 100 µM (inactive)
[23]
  GI50: > 100 µM (inactive)
[24]
  GI50: > 100 µM (inactive)
[25]
  GI50: > 100 µM (inactive)
[26]
  GI50: 42 µM (inactive)
[56]
  GI50: > 100 µM (inactive)
[58]
  GI50: > 100 µM (inactive)
[27]
  GI50: > 100 µM (inactive)
[59]
  GI50: > 100 µM (inactive)
[28]
  GI50: > 100 µM (inactive)
[30]
  GI50: > 100 µM (inactive)
[31]
  GI50: > 100 µM (inactive)
[32]
  GI50: > 100 µM (inactive)
[60]
  GI50: > 100 µM (inactive)
[33]
  GI50: > 100 µM (inactive)
[34]
  GI50: > 100 µM (inactive)
[35]
  GI50: > 100 µM (inactive)
[36]
  GI50: > 100 µM (inactive)
[37]
  GI50: > 100 µM (inactive)
[38]
  GI50: > 100 µM (inactive)
[39]
  GI50: > 100 µM (inactive)
[40]
  GI50: > 100 µM (inactive)
[41]
  GI50: > 100 µM (inactive)
[42]
  GI50: 21.1 µM (inactive)
[43]
  GI50: > 100 µM (inactive)
[44]
  GI50: > 100 µM (inactive)
[45]
  GI50: > 100 µM (inactive)
[46]
  GI50: > 100 µM (inactive)
[47]
  GI50: > 100 µM (inactive)
[48]
  GI50: > 100 µM (inactive)
